Assay results: patent US20080145412A1, “METHOD OF PROMOTING ANGIOGENESIS” (Acologix, Inc., priority 2006, published 2008)

Legend:
[1] = tested on: murine calvarial organ culture; assay: Histological evaluation of bones from murine calvarial organ culture; format: cell-based, mouse; conditions: histological evaluation of the bones
Excerpt: (§1) We have previously reported AC-100 treatment increases PGE2, TGFbeta and Fibronectin levels in the conditioned media from the murine calvarial organ culture. Histological evaluation of the bones indicated AC-100 increased the amount of new bone formation and numbers of osteoblasts.

BMP2 [2] = assay: Synergy with BMP2 in vitro; format: cell-based; conditions: combination with BMP2, in vitro
Excerpt: (§2) BMP2, a potent osteogenic agent is also a strong stimulator of angiognenesis.

FGF2 [3] = assay: ELISA timecourse of FGF2 in calvaria organ culture lysates and conditioned media (FIG. 2A); format: cell-based, mouse
Procedure: (§3) To quantitatively measure the increase in FGF2 in AC-100 treated bones, lysates were harvested over a comprehensive timecourse (30 min, 1 hr, 2 hr, 6 hr, 24 hr, 48 hr, 72 hr, day 4, day 5) and analysed for FGF2 and other bone anabolic factors using ELISA. […] Consistent with our previous findings AC-100 increased PGE2 in the conditioned media and TGFbeta and Fibronectin in both the conditioned media and bone lysate.
(§4) In addition, this response roughly correlated with expression of PGE-2 following AC-100 treatment (2B), TGF-β (2C) and Fibronectin (2D). Increases in PGE2 in the same cultures were observed from […].

TGFbeta = TGFbeta in murine calvarial organ culture (FIG. 2C); format: cell-based, mouse
Procedure: as §1, §3, §4

FGF-2 = FGF-2 production in mouse calvaria organ cultures (FIG. 1); format: cell-based; conditions: tissue lysates and conditioned media
Procedure: AC-100 at both 1 and 10 uM concentrations increased the production of FGF-2 in mouse calvaria organ cultures. Increases were found in both tissue lysates and in the conditioned media of cultures treated with AC-100.

Fibronectin = Fibronectin in murine calvarial organ culture (FIG. 2D); format: cell-based, mouse
Procedure: as §1, §3, §4

bone healing = assay: Bone healing in diverse animal models; format: in vivo
Excerpt: Angiogenesis is a crucial part of bone healing.

PGE2 = PGE2 in murine calvarial organ culture (FIG. 2B); format: cell-based, mouse
Procedure: as §1, §3, §4

BMP2 [4] = assay: Synergy with BMP2 in vivo, ossicle formation
Excerpt: as §2

FGF2 [5] = assay: Angiogenesis antibody array (TranSignal Mouse Angiogenesis Antibody Array) of lysates from AC-100 treated calvariae; format: cell-based; conditions: calvaria lysates
Excerpt: To investigate whether AC-100 modulates bone anabolic factors that are sequestered within the bone matrix we have analysed lysates from AC-100 treated calvariae.
Initial experiments analysed the lysates using an angiogenesis antibody array (TranSignal Mouse Angiogenesis Antibody Array, Panomics).

[6] = conditioned media, murine calvarial organ culture, previously reported

Sequence: TDLQERGDNDISPFSGDGQPFKD [AC-100]
- amount of new bone formation [1]: increased
- numbers of osteoblasts [1]: increased
- activity with BMP2 in vitro (BMP2 [2]): synergistic activities
- FGF2 in conditioned media (FGF2 [3]; ELISA, conditioned media): not detectable
- FGF2 in bone lysates (FGF2 [3]; ELISA, lysates, 30 min through day 5): potent increase
- production of FGF-2 over time (FIG. 2A) (FGF2 [3]; approximately 1 hr to 5 days): increased
- TGFbeta in bone lysate (TGFbeta; ELISA, bone lysate): increased
- TGFbeta in conditioned media (TGFbeta; ELISA, conditioned media): increased
- TGFbeta levels (TGFbeta; [6]): increases
- production of FGF-2 (FGF-2; AC-100 1 uM): increased
- production of FGF-2 (FGF-2; AC-100 10 uM): increased
- Fibronectin in bone lysate (Fibronectin; ELISA, bone lysate): increased
- Fibronectin in conditioned media (Fibronectin; ELISA, conditioned media): increased
- Fibronectin levels (Fibronectin; [6]): increases
- healing (bone healing): earlier healing
- new bone formed (bone healing): increased amount and better quality of new bone
- PGE2 in conditioned media (PGE2; ELISA, conditioned media): increased
- PGE2 levels (PGE2; [6]): increases
- PGE2 over time (FIG. 2B) (PGE2; same cultures, days 2-7): Increases
- osteons and blood vessels in ossicles (BMP2 [4]; BMP2 and AC-100 co-treatment): contain mature osteons with new blood vessels
- structure of ossicles formed (BMP2 [4]; BMP2 and AC-100 co-treatment versus BMP2 alone): more mature structure
- activity with BMP2 in vivo (BMP2 [4]; combination with BMP2, in vivo): synergistic activities
- FGF2 signal at 2 hr (FGF2 [5]; 2 hr): increased
- FGF2 signal 24 hr through day 3 (FGF2 [5]; 24 hr through day 3): the same as the control bones
- FGF2 signal at day 5 (FGF2 [5]; day 5, control signal significantly reduced): still strong
- FGF2 signal, overall course (FGF2 [5]; versus control bones): earlier and prolonged increase
